Measured values: ChEMBL document CHEMBL5360614, “Quinoline Thiourea-Based Zinc Ionophores with Antibacterial Activity” (J Med Chem, 2023)
Converted amounts (≈) assume the structure as drawn. Values belong to the compound of their own block, whether it stands above or below them. Non-standard residues stand in square brackets, D forms with d. Residues, ends and D or L forms follow the SMILES beside them. ξ: configuration not given here. Orn = NCCC[C@H](N)C(=O)O; ξP = O=C(O)C1CCCN1

Tests used:
Assay type in all cases: functional
Staphylococcus aureus [1] = test: Antibacterial activity against Staphylococcus aureus MTCC-96 assessed as reduction in bacterial growth incubated for 14 to 16 hrs by microbroth dilution method; settings: time 14-16 hrs
Escherichia coli = test: Antibacterial activity against Escherichia coli MTCC 1687 assessed as reduction in bacterial growth incubated for 14 to 16 hrs by microbroth dilution method; settings: time 14-16 hrs
Staphylococcus aureus [2] = test: (§1) Antibacterial activity against gentamicin-and methicillin-resistant Staphylococcus aureus ATCC 33592 assessed as reduction in bacterial growth incubated for 14 to 16 hrs by microbroth dilution method; settings: time 14-16 hrs
Staphylococcus aureus [3] = test: Potency index, ratio of compound MIC to compound MIC in presence of 1 uM 1-(2-(1H-benzo[d]imidazol-1-yl)quinolin-8-yl)-3-(3,5-bis(trifluoromethyl)phenyl)thiourea and 200 uM ZnCl2 for antibacterial activity against gentamicin-and methicillin-resistant Staphylococcus aureus ATCC 33592
Staphylococcus aureus [4] = test: as §1, with “hrs in presence of 1 uM 1-(2-(1H-benzo[d]imidazol-1-yl)quinolin-8-yl)-3-(3,5-bis(trifluoromethyl)phenyl)thiourea and 100 uM ZnCl2” for “hrs”; settings: time 14-16 hrs
Staphylococcus aureus [5] = test: as §1, with “hrs in presence of 1 uM 1-(2-(1H-benzo[d]imidazol-1-yl)quinolin-8-yl)-3-(3,5-bis(trifluoromethyl)phenyl)thiourea and 200 uM ZnCl2” for “hrs”; settings: time 14-16 hrs
Staphylococcus aureus [6] = test: (§2) Antibacterial activity against gentamicin-and methicillin-resistant Staphylococcus aureus ATCC 33592 assessed as reduction in bacterial growth incubated for 14 to 16 hrs in presence of 200 uM ZnCl2 by microbroth dilution method; settings: time 14-16 hrs
Staphylococcus aureus [7] = test: as §2, with “1” for “200”, “1-(2-(1H-benzo[d]imidazol-1-yl)quinolin-8-yl)-3-(3,5-bis(trifluoromethyl)phenyl)thiourea” for “ZnCl2”; settings: time 14-16 hrs

MIC (Staphylococcus aureus [1]): 1870 µM
Compound: CUPRIC CHLORIDE

Compound: COc1ccc(NC(=S)Nc2cccc3cccnc23)cc1
MIC (Escherichia coli): > 50 µM
MIC (Staphylococcus aureus [1]): > 25 µM
MIC (Staphylococcus aureus [2]): > 50 µM

Compound: FC(F)(F)c1ccc(NC(=S)Nc2cccc3cccnc23)cc1
MIC (Escherichia coli): > 50 µM
MIC (Staphylococcus aureus [1]): 6.25 µM (≈ 2.17 µg/mL)
MIC (Staphylococcus aureus [2]): 6.25 µM (≈ 2.17 µg/mL)

Compound: FC(F)(F)c1cc(NC(=S)Nc2cccc3ccc(-n4ccnc4)nc23)cc(C(F)(F)F)c1
MIC (Escherichia coli): > 50 µM
MIC (Staphylococcus aureus [1]): 12.5 µM (≈ 6.02 µg/mL)
MIC (Staphylococcus aureus [2]): 12.5 µM (≈ 6.02 µg/mL)

Compound: CC(C)(O/N=C(\C(=O)N[C@@H]1C(=O)N2C(C(=O)[O-])=C(C[n+]3ccccc3)CS[C@H]12)c1csc(N)n1)C(=O)O [CEFTAZIDIME]
Ratio (Staphylococcus aureus [3]): 1524
MIC (Staphylococcus aureus [4]): 5.7 µM
MIC (Staphylococcus aureus [5]): 0.15 µM
MIC (Staphylococcus aureus [6]): 229 µM
MIC (Staphylococcus aureus [7]): 229 µM
MIC (Staphylococcus aureus [2]): 229 µM (≈ 125 µg/mL)

Compound: CC1(C)S[C@@H]2[C@H](NC(=O)[C@H](N)c3ccc(O)cc3)C(=O)N2[C@H]1C(=O)O [AMOXICILLIN]
Ratio (Staphylococcus aureus [3]): 341
MIC (Staphylococcus aureus [4]): 4.09 µM
MIC (Staphylococcus aureus [5]): 0.05 µM
MIC (Staphylococcus aureus [6]): 17 µM
MIC (Staphylococcus aureus [7]): 17 µM
MIC (Staphylococcus aureus [2]): 17 µM (≈ 6.21 µg/mL)

Compound: FC(F)(F)c1cc(NC(=S)Nc2cccc3ccc(Nc4nc5ccccc5[nH]4)nc23)cc(C(F)(F)F)c1
MIC (Escherichia coli): > 50 µM
MIC (Staphylococcus aureus [1]): > 50 µM
MIC (Staphylococcus aureus [2]): > 50 µM

Compound: NC[C@H]1O[C@H](O[C@H]2[C@H](O)[C@@H](O[C@H]3O[C@H](CO)[C@@H](O)[C@H](N)[C@H]3O)[C@H](N)C[C@@H]2N)[C@H](O)[C@@H](O)[C@@H]1O [KANAMYCIN]
Ratio (Staphylococcus aureus [3]): 499
MIC (Staphylococcus aureus [4]): 6.44 µM
MIC (Staphylococcus aureus [5]): 0.31 µM
MIC (Staphylococcus aureus [6]): 155 µM
MIC (Staphylococcus aureus [7]): 155 µM
MIC (Staphylococcus aureus [2]): 155 µM (≈ 75.1 µg/mL)

Compound: FC(F)(F)c1cc(NC(=S)Nc2cccc3ccc(-n4cccc4)nc23)cc(C(F)(F)F)c1
MIC (Escherichia coli): > 50 µM
MIC (Staphylococcus aureus [1]): > 50 µM
MIC (Staphylococcus aureus [2]): > 50 µM

Compound: FC(F)(F)c1cc(NC(=S)Nc2cccc3ccc(-n4ccc5ccccc54)nc23)cc(C(F)(F)F)c1
MIC (Escherichia coli): > 50 µM
MIC (Staphylococcus aureus [1]): 6.25 µM (≈ 3.32 µg/mL)
MIC (Staphylococcus aureus [2]): 6.25 µM (≈ 3.32 µg/mL)

Compound: CN(C)[C@@H]1C(O)=C(C(N)=O)C(=O)[C@@]2(O)C(O)=C3C(=O)c4c(O)cccc4[C@@](C)(O)[C@H]3C[C@@H]12 [TETRACYCLINE]
Ratio (Staphylococcus aureus [3]): 933
MIC (Staphylococcus aureus [4]): 0.87 µM
MIC (Staphylococcus aureus [5]): 0.18 µM
MIC (Staphylococcus aureus [6]): 168 µM
MIC (Staphylococcus aureus [7]): 168 µM
MIC (Staphylococcus aureus [2]): 168 µM (≈ 74.7 µg/mL)

Compound: [O-][n+]1ccccc1S [PYRITHIONE]
MIC (Staphylococcus aureus [1]): 9.8 µM (≈ 1.25 µg/mL)

Compound: O=C(Nc1cc(C(F)(F)F)cc(C(F)(F)F)c1)Nc1cccc2cccnc12
MIC (Escherichia coli): > 50 µM
MIC (Staphylococcus aureus [1]): > 50 µM
MIC (Staphylococcus aureus [2]): > 50 µM

Compound: [Cl-].[Cl-].[Zn+2] [ZINC CHLORIDE]
MIC (Escherichia coli): 2000 µM
MIC (Staphylococcus aureus [1]): 1560 µM
MIC (Staphylococcus aureus [2]): 1560 µM

Compound: CC(C)C[C@@H]1NC(=O)[C@H](CCCN)NC(=O)[C@H](C(C)C)NC(=O)[C@@H]2CCCN2C(=O)[C@@H](Cc2ccccc2)NC(=O)[C@H](CC(C)C)NC(=O)[C@H](CCCN)NC(=O)[C@H](C(C)C)NC(=O)C2CCCN2C(=O)[C@@H](Cc2ccccc2)NC1=O (some centres undefined) (cyclo(L[dF]PV[Orn]L[dF][ξP]V[Orn]))
MIC (Escherichia coli): 4.51 µM (≈ 5.15 µg/mL)
MIC (Staphylococcus aureus [1]): 3.12 µM (≈ 3.56 µg/mL)
MIC (Staphylococcus aureus [2]): 6.5 µM (≈ 7.42 µg/mL)

Compound: O=[N+]([O-])c1ccc(NC(=S)Nc2cccc3cccnc23)cc1
MIC (Escherichia coli): > 50 µM
MIC (Staphylococcus aureus [1]): > 25 µM
MIC (Staphylococcus aureus [2]): > 50 µM

Compound: S=C(Nc1ccccc1)Nc1cccc2cccnc12
MIC (Escherichia coli): > 50 µM
MIC (Staphylococcus aureus [1]): > 25 µM
MIC (Staphylococcus aureus [2]): > 50 µM
